Data reported in ChEMBL document CHEMBL5465560, “Selectivity Literature for EUbOPEN Chemogenomic Library” (2024).
Values belong to the compound of their own block, whether it stands above or below them.

Key:
[1] = biological target: Receptor tyrosine-protein kinase erbB-2 (Homo sapiens, UniProt P04626); assay: Selectivity interaction (KinomeScan (DiscoverX)) EUB0000092b ERBB2; settings: at 10 µM
[2] = biological target: Phosphatidylinositol 4-phosphate 5-kinase type-1 alpha (Homo sapiens) (UniProt Q99755); assay: Selectivity interaction (KinomeScan (DiscoverX)) EUB0000655a PIP5K1A; settings: at 10 µM
[3] = biological target: Phosphatidylinositol 4-kinase type 2-alpha (Homo sapiens) (UniProt Q9BTU6); assay: Selectivity interaction (ProQinase) EUB0000171b PI4K2A
[4] = biological target: T1, Serine/threonine-protein kinase D1 (Homo sapiens) (UniProt Q15139); assay: Selectivity interaction (Millipore kinase profiler) EUB0000124b PRKD1; settings: at 10 µM
T1 sequence (whole entry): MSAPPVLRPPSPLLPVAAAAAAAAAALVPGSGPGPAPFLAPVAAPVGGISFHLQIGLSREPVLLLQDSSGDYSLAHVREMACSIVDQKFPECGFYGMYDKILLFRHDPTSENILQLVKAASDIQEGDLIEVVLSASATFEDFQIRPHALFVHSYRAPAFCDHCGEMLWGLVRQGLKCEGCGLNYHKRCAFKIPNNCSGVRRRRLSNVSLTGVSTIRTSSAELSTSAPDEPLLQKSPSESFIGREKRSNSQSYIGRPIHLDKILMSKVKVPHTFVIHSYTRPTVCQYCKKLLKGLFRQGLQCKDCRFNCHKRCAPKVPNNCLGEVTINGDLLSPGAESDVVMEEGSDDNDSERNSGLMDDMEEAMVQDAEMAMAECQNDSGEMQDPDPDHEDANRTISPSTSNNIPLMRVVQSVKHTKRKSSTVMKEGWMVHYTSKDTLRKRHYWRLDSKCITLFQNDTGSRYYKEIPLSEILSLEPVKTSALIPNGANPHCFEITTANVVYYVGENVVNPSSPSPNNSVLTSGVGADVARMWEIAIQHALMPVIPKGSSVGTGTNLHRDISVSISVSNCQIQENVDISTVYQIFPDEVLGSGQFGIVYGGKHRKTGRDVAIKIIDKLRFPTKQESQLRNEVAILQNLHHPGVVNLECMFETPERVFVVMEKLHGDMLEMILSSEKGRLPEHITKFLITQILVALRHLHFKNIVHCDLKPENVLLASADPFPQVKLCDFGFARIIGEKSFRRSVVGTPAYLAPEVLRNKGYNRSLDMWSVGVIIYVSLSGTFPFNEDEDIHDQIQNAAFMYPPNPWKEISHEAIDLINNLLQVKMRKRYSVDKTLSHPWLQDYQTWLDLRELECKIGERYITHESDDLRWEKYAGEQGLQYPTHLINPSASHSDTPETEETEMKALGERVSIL

[5] = biological target: Epidermal growth factor receptor (Homo sapiens, UniProt P00533); assay: Selectivity interaction (Radiometric kinase assay (using 10 uM ATP)) EUB0000601a EGFR
[6] = biological target: Calcium/calmodulin-dependent protein kinase type II subunit beta (Homo sapiens) (UniProt Q13554); assay: Selectivity interaction (ActivX KiNativ screen (kinase selectivity in THP-1 cell lysates)) EUB0000639a CAMK2B; format: subcellular; settings: lysate, at 0.2 µM
[7] = biological target: Tyrosine-protein kinase Fes/Fps (Homo sapiens) (UniProt P07332); assay: Selectivity interaction (ActivX KiNativ screen (kinase selectivity in THP-1 cell lysates)) EUB0000639a FES; format: subcellular; settings: lysate
[8] = biological target: T2, Mitogen-activated protein kinase 12 (Homo sapiens) (UniProt P53778); assay: Selectivity interaction (ActivX KiNativ screen (kinase selectivity in THP-1 cell lysates)) EUB0000639a MAPK12; format: subcellular; settings: lysate
T2 sequence (whole entry): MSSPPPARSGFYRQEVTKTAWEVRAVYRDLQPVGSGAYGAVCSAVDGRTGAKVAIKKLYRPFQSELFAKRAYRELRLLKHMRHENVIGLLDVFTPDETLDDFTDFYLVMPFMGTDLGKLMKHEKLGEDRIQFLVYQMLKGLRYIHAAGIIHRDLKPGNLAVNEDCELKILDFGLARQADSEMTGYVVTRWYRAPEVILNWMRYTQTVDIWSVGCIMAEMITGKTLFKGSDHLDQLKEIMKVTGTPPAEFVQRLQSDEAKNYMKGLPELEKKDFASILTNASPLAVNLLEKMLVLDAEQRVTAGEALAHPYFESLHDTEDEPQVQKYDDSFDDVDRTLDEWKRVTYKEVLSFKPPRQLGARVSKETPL

[9] = biological target: Cyclin-dependent kinase 18 (Homo sapiens) (UniProt Q07002); assay: Selectivity interaction (ActivX KiNativ screen (kinase selectivity in THP-1 cell lysates)) EUB0000639a CDK18; format: subcellular; settings: lysate, at 0.01 µM
[10] = biological target: Serine/threonine-protein kinase WNK2 (Homo sapiens) (UniProt Q9Y3S1); assay: Selectivity interaction (ActivX KiNativ screen (kinase selectivity in THP-1 cell lysates)) EUB0000639a WNK2; format: subcellular; settings: lysate
[11] = biological target: Serine/threonine-protein kinase RIO2 (Homo sapiens) (UniProt Q9BVS4); assay: Selectivity interaction (KinomeScan (DiscoverX)) EUB0000607a RIOK2; settings: at 10 µM
[12] = biological target: T3, Serine/threonine-protein kinase Sgk1 (Homo sapiens) (UniProt O00141); assay: Selectivity interaction (SelectScreen profiling (Invitrogen)) EUB0000607a SGK1; settings: at 2 µM
T3 sequence (whole entry): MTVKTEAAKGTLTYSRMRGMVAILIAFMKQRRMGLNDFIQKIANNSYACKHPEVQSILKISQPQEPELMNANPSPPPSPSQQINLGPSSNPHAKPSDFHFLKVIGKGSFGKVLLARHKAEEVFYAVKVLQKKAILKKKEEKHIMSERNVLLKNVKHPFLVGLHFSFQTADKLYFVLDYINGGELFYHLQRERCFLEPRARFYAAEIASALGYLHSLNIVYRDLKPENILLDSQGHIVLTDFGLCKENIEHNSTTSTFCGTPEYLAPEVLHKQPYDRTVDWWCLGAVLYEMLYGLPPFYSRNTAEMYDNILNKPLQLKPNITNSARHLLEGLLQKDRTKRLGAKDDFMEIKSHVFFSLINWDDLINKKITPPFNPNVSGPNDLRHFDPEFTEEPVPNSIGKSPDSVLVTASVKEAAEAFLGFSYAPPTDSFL

[13] = biological target: Epithelial discoidin domain-containing receptor 1 (Homo sapiens) (UniProt Q08345); settings: at 10 µM
Activated CDC42 kinase 1 = Activated CDC42 kinase 1 (Homo sapiens, UniProt Q07912); assay: Selectivity interaction (Ambit KINOMEscan and KiNATiv profiling in Jurkat cells) EUB0000090b TNK2; format: cell-based; settings: at 1 µM
[14] = biological target: Protein arginine N-methyltransferase 8 (Homo sapiens, UniProt Q9NR22); settings: at 1 µM
Sequence of Protein arginine N-methyltransferase 8 (Q9NR22 2-394 limits assumed): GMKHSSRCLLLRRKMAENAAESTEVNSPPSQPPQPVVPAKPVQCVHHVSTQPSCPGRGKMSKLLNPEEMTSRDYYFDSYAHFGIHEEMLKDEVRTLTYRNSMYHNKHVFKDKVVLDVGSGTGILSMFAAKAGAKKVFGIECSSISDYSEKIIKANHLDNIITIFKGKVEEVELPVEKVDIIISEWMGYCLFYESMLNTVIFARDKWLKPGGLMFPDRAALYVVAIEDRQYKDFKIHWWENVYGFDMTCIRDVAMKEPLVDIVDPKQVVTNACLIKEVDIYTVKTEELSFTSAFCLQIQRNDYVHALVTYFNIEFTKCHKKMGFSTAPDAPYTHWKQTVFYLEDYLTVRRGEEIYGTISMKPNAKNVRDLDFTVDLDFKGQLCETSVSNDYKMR

Sequence of Tyrosine-protein kinase Fes/Fps (Homo sapiens) (P07332 whole entry): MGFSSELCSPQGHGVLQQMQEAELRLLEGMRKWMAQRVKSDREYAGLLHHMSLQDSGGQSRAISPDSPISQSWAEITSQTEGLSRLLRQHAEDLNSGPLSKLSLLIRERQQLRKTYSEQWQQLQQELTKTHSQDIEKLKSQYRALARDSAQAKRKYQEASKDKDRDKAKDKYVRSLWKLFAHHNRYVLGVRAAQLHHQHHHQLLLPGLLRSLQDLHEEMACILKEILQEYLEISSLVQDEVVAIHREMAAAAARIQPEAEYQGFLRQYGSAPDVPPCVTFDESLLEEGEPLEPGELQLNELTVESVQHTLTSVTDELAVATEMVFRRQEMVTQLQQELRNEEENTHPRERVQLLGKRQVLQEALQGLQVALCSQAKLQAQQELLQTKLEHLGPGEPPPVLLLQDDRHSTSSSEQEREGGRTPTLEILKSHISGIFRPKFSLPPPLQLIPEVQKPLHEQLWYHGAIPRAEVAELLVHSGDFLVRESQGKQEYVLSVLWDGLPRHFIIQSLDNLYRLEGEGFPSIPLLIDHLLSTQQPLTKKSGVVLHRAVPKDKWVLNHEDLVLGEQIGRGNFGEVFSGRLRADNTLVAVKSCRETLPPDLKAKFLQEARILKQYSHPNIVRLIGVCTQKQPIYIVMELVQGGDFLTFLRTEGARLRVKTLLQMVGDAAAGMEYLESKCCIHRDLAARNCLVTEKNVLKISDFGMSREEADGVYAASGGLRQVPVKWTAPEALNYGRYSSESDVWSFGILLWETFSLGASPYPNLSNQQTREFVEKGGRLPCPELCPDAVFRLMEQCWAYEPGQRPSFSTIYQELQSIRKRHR
Sequence of Serine/threonine-protein kinase WNK2 (Homo sapiens) (Q9Y3S1 whole entry): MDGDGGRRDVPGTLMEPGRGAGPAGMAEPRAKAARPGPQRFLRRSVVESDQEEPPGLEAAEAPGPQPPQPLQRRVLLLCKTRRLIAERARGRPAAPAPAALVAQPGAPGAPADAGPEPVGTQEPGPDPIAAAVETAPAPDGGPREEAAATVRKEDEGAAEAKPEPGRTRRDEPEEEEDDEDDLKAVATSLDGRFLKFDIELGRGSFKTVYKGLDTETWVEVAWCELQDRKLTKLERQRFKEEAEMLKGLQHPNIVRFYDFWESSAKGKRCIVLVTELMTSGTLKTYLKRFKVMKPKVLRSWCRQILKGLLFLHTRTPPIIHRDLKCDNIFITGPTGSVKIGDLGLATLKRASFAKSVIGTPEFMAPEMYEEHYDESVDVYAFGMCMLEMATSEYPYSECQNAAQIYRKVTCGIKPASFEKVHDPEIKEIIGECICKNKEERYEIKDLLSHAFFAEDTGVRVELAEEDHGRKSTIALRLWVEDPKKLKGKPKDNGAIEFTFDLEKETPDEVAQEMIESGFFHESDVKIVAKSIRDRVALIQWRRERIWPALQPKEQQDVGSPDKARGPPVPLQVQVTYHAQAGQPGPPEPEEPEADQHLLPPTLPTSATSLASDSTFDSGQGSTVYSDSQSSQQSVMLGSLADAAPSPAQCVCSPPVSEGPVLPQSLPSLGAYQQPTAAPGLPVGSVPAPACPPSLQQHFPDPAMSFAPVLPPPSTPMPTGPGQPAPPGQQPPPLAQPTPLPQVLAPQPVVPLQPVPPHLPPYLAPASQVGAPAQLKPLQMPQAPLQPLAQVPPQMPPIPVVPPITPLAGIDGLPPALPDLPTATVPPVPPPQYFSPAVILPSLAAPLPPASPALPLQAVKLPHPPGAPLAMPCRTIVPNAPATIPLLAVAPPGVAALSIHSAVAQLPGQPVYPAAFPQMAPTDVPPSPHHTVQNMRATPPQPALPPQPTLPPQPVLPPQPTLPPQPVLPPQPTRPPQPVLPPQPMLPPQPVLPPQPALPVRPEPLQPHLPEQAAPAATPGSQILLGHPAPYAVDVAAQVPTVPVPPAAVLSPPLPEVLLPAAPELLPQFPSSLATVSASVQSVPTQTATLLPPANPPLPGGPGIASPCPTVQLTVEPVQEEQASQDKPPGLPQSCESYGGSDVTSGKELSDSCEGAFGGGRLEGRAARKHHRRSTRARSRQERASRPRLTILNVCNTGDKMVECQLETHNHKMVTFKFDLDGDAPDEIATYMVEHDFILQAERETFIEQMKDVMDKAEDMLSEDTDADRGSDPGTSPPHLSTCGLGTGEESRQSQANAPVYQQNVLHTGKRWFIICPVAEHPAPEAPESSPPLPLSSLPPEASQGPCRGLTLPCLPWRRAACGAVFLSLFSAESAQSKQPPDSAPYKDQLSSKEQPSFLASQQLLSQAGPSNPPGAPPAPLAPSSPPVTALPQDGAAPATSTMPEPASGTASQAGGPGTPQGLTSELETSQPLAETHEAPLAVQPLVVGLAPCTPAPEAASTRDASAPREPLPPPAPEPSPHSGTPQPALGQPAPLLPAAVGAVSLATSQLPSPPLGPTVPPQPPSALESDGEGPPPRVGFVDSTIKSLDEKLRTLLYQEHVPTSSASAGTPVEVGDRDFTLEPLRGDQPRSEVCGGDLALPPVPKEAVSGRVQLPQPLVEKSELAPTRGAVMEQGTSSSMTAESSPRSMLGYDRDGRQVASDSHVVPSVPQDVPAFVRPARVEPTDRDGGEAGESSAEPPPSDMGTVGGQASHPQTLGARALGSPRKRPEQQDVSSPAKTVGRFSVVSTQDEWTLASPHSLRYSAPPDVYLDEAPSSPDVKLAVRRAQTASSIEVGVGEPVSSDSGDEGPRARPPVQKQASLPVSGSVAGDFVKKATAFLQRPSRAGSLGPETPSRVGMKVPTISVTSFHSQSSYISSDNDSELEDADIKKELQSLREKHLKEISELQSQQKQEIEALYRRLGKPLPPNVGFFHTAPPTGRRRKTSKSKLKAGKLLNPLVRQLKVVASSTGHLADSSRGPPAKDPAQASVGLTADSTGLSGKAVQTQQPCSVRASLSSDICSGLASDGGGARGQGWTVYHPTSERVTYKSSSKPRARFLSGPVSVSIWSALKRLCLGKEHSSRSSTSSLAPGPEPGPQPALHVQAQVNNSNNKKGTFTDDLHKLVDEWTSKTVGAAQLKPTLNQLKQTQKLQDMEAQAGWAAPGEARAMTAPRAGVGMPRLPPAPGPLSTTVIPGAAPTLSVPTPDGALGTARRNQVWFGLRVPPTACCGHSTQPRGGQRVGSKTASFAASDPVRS
Sequence of Phosphatidylinositol 4-kinase type 2-alpha (Homo sapiens) (Q9BTU6 whole entry): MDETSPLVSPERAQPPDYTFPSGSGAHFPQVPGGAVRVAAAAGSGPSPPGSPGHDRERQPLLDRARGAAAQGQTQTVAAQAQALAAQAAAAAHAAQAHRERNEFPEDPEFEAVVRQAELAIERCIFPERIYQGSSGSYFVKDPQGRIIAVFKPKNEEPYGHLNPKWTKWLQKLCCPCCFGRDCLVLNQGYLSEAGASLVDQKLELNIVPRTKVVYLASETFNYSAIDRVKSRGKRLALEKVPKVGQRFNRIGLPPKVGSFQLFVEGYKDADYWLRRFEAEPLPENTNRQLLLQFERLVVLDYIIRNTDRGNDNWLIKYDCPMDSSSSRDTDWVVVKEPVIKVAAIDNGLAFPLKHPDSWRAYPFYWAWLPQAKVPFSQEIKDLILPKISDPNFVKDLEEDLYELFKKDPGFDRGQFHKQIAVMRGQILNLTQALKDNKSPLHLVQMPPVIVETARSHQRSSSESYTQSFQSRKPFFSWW
Sequence of Phosphatidylinositol 4-phosphate 5-kinase type-1 alpha (Homo sapiens) (Q99755 whole entry): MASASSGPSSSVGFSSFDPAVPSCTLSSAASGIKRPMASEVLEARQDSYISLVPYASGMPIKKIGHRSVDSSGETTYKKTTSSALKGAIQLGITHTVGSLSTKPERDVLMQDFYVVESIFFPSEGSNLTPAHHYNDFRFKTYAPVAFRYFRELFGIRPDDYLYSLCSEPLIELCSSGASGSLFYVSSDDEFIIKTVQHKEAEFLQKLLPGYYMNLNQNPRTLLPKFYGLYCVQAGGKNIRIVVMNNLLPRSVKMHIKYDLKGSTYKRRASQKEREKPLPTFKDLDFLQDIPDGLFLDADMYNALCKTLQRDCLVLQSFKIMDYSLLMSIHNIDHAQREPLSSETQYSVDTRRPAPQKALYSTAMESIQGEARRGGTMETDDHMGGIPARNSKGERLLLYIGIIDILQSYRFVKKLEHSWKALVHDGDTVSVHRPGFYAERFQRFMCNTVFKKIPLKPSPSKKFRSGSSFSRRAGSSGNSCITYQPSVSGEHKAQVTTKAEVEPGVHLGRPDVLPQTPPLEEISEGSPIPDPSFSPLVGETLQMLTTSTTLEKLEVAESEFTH
Sequence of Cyclin-dependent kinase 18 (Homo sapiens) (Q07002 whole entry): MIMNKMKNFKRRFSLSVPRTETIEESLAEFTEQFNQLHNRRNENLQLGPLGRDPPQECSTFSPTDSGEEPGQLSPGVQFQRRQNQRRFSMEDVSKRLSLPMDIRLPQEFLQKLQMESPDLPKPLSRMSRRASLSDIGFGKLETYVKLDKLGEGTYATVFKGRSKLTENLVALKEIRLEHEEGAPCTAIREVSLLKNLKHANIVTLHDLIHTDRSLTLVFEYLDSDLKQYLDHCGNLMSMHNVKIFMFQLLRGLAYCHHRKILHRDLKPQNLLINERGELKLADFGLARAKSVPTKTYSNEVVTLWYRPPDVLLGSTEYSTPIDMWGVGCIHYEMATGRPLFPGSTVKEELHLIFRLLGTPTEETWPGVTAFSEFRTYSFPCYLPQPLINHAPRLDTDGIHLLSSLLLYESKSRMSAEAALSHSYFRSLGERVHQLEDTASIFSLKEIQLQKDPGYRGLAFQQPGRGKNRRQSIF

SMILES: CCC(=O)N1CCN(c2ccc(-n3c(=O)ccc4cnc5ccc(-c6cnc7ccccc7c6)cc5c43)cc2C(F)(F)F)CC1
- % of control [1]: 91%

SMILES: CN(C)CCOc1ccc(-c2nc(-c3ccncc3)c(-c3ccc4c(c3)CC/C4=N\O)[nH]2)cc1
- % of control [2]: 100%

SMILES: C=CC(=O)Nc1cccc(C(=O)Nc2ccc(Nc3cc(-c4[nH]c(SC)nc4C)ccn3)cc2)c1
- % of control ([3]; at 1 µM): 117%
- % of control ([3]; at 5 µM): 133%

SMILES: CC(=O)Nc1cccc(-n2c(=O)n(C3CC3)c(=O)c3c(Nc4ccc(I)cc4F)n(C)c(=O)c(C)c32)c1
- % of control [4]: 111%

SMILES: CNC(=O)Nc1ccc(-c2nc(N3CC4CCC(C3)O4)c3cnn(C4CCC5(CC4)OCCO5)c3n2)cc1
- % of control [11]: 90%
- % of inhibition [12]: -2%

SMILES: COCC(=O)NC/C=C/c1ccc2ncnc(Nc3ccc(Oc4ccc(C)nc4)c(C)c3)c2c1 [CP-724714]
- % of control [13]: 52%

SMILES: CN(C)C/C=C/C(=O)Nc1ccc(C(=O)N2CCCC(Nc3ncc(Cl)c(-c4c[nH]c5ccccc45)n3)C2)cc1 (stereo not drawn)
- % of control (Activated CDC42 kinase 1): 99%

The next lines start with the values.

- IC50 [5]: > 10 µM
SMILES: CCc1cc(Nc2nccc(-c3c(-c4ccc(OC)c(C(=O)Nc5c(F)cccc5F)c4)nc4ccccn34)n2)c(OC)cc1N1CCC(N2CCN(S(C)(=O)=O)CC2)CC1

- % of inhibition [6]: 4.9%
- % of inhibition ([7]; at 0.01 µM): 0.3%
- % of inhibition ([7]; at 0.04 µM): 2.2%
- % of inhibition ([7]; at 0.2 µM): 5.7%
- % of inhibition ([7]; at 1 µM): 0.6%
- % of inhibition ([7]; at 5 µM): -23.7%
- % of inhibition ([8]; at 0.01 µM): -4.4%
- % of inhibition ([8]; at 0.04 µM): 6%
- % of inhibition ([8]; at 0.2 µM): -3.6%
- % of inhibition ([8]; at 1 µM): 7.4%
- % of inhibition ([8]; at 5 µM): 20.3%
- % of inhibition [9]: 16.3%
- % of inhibition ([10]; at 0.01 µM): 10.1%
- % of inhibition ([10]; at 0.04 µM): 23.3%
- % of inhibition ([10]; at 0.2 µM): 9.7%
- % of inhibition ([10]; at 1 µM): 3.1%
- % of inhibition ([10]; at 5 µM): 3%
SMILES: CC[C@@H]1[C@H](F)C(=O)N[C@@H]1COc1nccc2cc(C(N)=O)c(OC)cc12 [ZIMLOVISERTIB]

- % activity [14]: > 90%
SMILES: CNCCN1CCC(c2cc(CN(C)C(=O)c3cccc(Oc4ccccc4)c3)ccn2)CC1
